Measurements: a melting point compilation (Tetko et al.; mined from patent text by program, amines drawn as free bases though some values may be those of a salt)

Row | melting point [°C] | SMILES
1 | 131 to 133 | CCOC(=O)CC(=O)CNC(=O)CCc1cc(-c2ccc(C(F)(F)F)cc2)oc1C
2 | 139 to 142 | CCOCc1nc2c(N)nc3ccccc3c2n1CCOCCNS(=O)(=O)C(C)C
3 | 108 | COC(=O)c1ccc(NC(=O)OCc2ccccc2)c(Cl)c1
4 | 166 to 167 | COc1ccc(CSc2nnc(-c3ccnc(N)c3)o2)cc1F
5 | 156 | CCc1c(OC)cc(C2CNC(=O)C2)cc1OC (stereo not drawn)
6 | 74 to 76 | CCCCNc1nc(C)c(C(=O)OCC)c(N)c1[N+](=O)[O-]
7 | 209 to 210 | CC(C)(O)Cn1c(CONC(=O)C2CC2)nc2c(N)nc3ccccc3c21
8 | 218 | CCCCCNC(=O)Nc1ccc(N(C)C)cc1C(=O)NCC1CCN(C(c2ccccc2)c2ccccc2)CC1
9 | 147 to 149 | Cc1ccc2c3c(c(=O)oc2c1)CN(Cc1ccc(Cl)cc1)CC3
10 | 118 to 120 | CCOC(=O)C(C)Oc1ccc2cc(Oc3c(Cl)cc(C(F)(F)F)cc3Cl)ccc2c1 (stereo not drawn)
11 | 100 to 102 | O=C1c2ccc(Cl)cc2OCc2cccnc21
12 | 162 to 167 | CC1(C)Oc2ccc(C#N)cc2[C@@H](NC(=O)Nc2ccc(-c3ncno3)cc2)[C@@H]1O
13 | 165 to 166 | CC(C)(C)OC(=O)N1CCN(C(=O)Oc2ccc(Oc3ccc(C(F)(F)F)cn3)cc2)CC1
14 | 125 to 127 | c1ccc2c(c1)CCN(CCSc1ccnc(CSc3nc4ccccc4[nH]3)c1)C2
15 | 164 to 165 | O=C(NCCCCCCCCNC(=O)c1ccc(OC(F)(F)F)cc1)c1ccc(OC(F)(F)F)cc1
16 | 31 to 35 | COC(=O)NC(CCc1ccccc1)C(=O)OCC(Cl)(Cl)Cl (stereo not drawn)
17 | 179 to 180 | Cc1ccccc1S(=O)(=O)NC(N)=O
18 | 201 to 202 | NC(=Nc1ccc(N2CCN(C(=O)NCCCCC3CCSS3)CC2)cc1)c1cccs1 (stereo not drawn)
19 | 66 to 68 | CCOC(=O)/C=C/c1cccc(C(=O)c2ccc(C(F)(F)F)cc2)n1
20 | 150 to 153 | CC1CCC(N(CC2CCC(CN(C(=O)Nc3ccc(N(C)C)cc3)C3CCC(C)CC3)CC2)C(=O)Nc2ccc(N(C)C)cc2)CC1 (stereo not drawn)
21 | 88 to 90 | COC(=O)C(C)(C)OCc1oc(-c2ccc(Cl)cc2)nc1C
22 | 98 to 101 | CCOC(=O)c1cnn(-c2ncc(Cl)cc2Cl)c1N
23 | 141 to 142 | Cc1cc(Cl)c(OCCO[Si](C)(C)C(C)(C)C)cc1Nc1nnc2n1[C@H](c1ccc(F)cc1)COC2

Row | melting point [°C] | SMILES
24 | 168 to 169 | Cc1ccc(CNC(=O)C2=C(C(=O)Nc3cc(OC4CCCC4)c(Cl)cc3F)CCCC2)cc1
25 | 220 | O=c1[nH]c2cc(Cl)ccc2n1C1CCN(CCCNc2ccccc2[N+](=O)[O-])CC1
26 | 79 to 82 | CCOC(=O)c1c(N(CC)CC)c2ccc(C)nc2n(CC)c1=O
27 | 162 to 163 | CCCCCC1OCc2cc(C(N)=O)ccc2O1 (stereo not drawn)
28 | 59 to 60 | CCOC(=O)c1cc(SC)c(I)cc1N
29 | 232 | CC(=O)Nc1cc(Cl)c([N+](=O)[O-])cc1NC(C)=O
30 | 178 to 180 | O=C(O)c1ccc(OCc2ccccc2CCc2ccccc2)cc1
31 | 173 to 174 | O=C(O)c1cccc(-c2ccc3c(c2)C(Oc2ccc(Cl)cc2Cl)CC3)c1 (stereo not drawn)
32 | 224 to 226 | COC(=O)c1ccc(-c2n[nH]c3c2Cc2ccccc2-3)cc1
33 | 130 | CC(C)(c1ccccc1)c1cc(C(C)(C)c2ccccc2)c(O)cc1O
34 | 136 to 137 | CCc1ccc(C2(OC(C)=O)C(=O)c3ccccc3C2=O)c(OC(C)=O)c1
35 | 106 | CC(C)(C)C(O)(CCCOc1ccccc1)Cn1cncn1 (stereo not drawn)
36 | 192 | Cc1ccc(S(=O)(=O)OCC2CCN(C(c3ccccc3)(c3ccccc3)c3ccccc3)CC2)cc1
37 | 73 to 74 | C[C@@H]1OC=C[C@H](NC(=O)C(F)(F)F)[C@@]1(O)OC(=O)C(F)(F)F
38 | 263 to 264 | CS(=O)(=O)c1ccc(-c2coc3ccc(-c4nnc(N)o4)cc23)cc1Cl
39 | 189 to 190 | C[C@H]1N(C(=O)c2ccc(C(F)(F)F)cc2)CC(=O)O[C@@]1(Cn1cncn1)c1ccc(C(F)(F)F)cc1 (relative stereo)
40 | 155 to 157 | Cc1nnc(C(C)(C)C)c(=O)n1N
41 | 212 to 215 | Nc1ccc(C(=O)N2CCC[C@@H]3CCCC[C@H]32)cc1[N+](=O)[O-] (relative stereo)
42 | 85 to 87 | CCOC(=O)[C@H](Cc1ccc([N+](=O)[O-])cc1I)NC(=O)OCc1ccccc1
43 | 46 to 48 | CCOP(=O)(CC(=O)N(CC)c1cn(-c2cccnc2)nc1Cl)OCC
44 | 104 to 105 | Cc1cc(CCc2cc(C)cc(C(C)(C)C)c2O)c(O)c(C(C)(C)C)c1
45 | 171 to 173 | COC(=O)C(C)(C)Cc1c(SC(C)(C)C)c2cc(OCc3ccc4cc(F)c(F)cc4n3)ccc2n1Cc1ccc(Cl)cc1
46 | 158 to 159 | COc1ccc(CC(=O)O)c(C(=O)c2ccccc2)c1

Row | melting point [°C] | SMILES
47 | 138 to 141 | CC(C)Cn1c(=O)n(C)c(=O)c2c(SCCO)n(Cc3cccc4ccccc34)cc21
48 | 174 to 176 | ON=C1CCc2c1sc1c2CCCC1
49 | 136 | COc1ccc2ccc(N3C(=O)c4ccccc4C3OCC(=O)NCCC(C)C)nc2n1 (stereo not drawn)
50 | 142 to 143 | CCOC(=O)c1c(CC)nn2c(-c3cccc(C(F)(F)F)c3)ccnc12
51 | 100 to 102 | CC1(C)OC[C@H](CON2C(=O)c3ccccc3C2=O)O1
52 | 213 to 216 | Nc1ccc(C(=O)NC2CCN(c3ccccc3)C2)cc1 (stereo not drawn)
53 | 268 to 270 | O=C1CN(c2ccncc2)CCN1
54 | 268 | Cc1nc(NC(=O)c2cnn3c(C(F)F)cc(-c4ccc(C(F)(F)F)cc4)nc23)sc1S(=O)(=O)NC(C)(C)CO
55 | 115 to 117 | COc1cc(C(C)C)c(Oc2cnc(N)nc2N)cc1N1CCN(S(C)(=O)=O)CC1
56 | 133 to 134 | CC(=O)c1cc(-c2c(C)c(NC(=O)CC(C)(C)C)c(C)c3c2OCC3c2ccc(C(C)C)cc2)cs1 (stereo not drawn)
57 | 146 to 147 | CCOCc1nc2c(N)nc3cccnc3c2n1CCCCN(OC)C(=O)NC(C)C
58 | 151 to 154 | CCCN1CCCC2(Cc3ccccc3NC2=O)C1=O (stereo not drawn)
59 | 118 | COc1cc(C(C)=O)ccc1OCCCCCN1CCC(C(O)(c2ccc(F)cc2)c2ccc(F)cc2)CC1
60 | 254 to 256 | CC(=O)NC[C@H]1CN(c2ccc(C(=O)c3cnc4cnccn34)cc2)C(=O)O1
61 | 98 to 100 | COc1ccc2c(c1)OC1(O)c3ccccc3C(=O)C21O (stereo not drawn)
62 | 130 to 132 | COc1cc(C)c(S(=O)(=O)N(C)C)cc1[N+](=O)[O-]
63 | 207 to 208 | Cc1ccc(-c2nc3n(n2)Cc2ccccc2-3)cc1
64 | 205 to 207 | CC(=O)Nc1c(C(=O)c2ccc(F)cc2)[nH]c2cc(Cl)ccc12
65 | 146 to 148 | N#CC(C#N)=Cc1ccc(OCc2ccccc2)cc1
66 | 39 to 40 | CC(C)SCS(=O)C(C)C (stereo not drawn)
67 | 230 | N#Cc1ccc(NC(=CNCC(=O)O)[N+](=O)[O-])cc1
68 | 240 to 242 | CCn1c(=O)[nH]c2c3ccccc3ccc21
69 | 247 to 249 | O=C(O)COc1ccc(OCCC2CCN(c3ccncc3)CC2)cc1

Row | melting point [°C] | SMILES
70 | > 250 | Nc1ncc(C2CCN(c3ccc([N+](=O)[O-])cc3)CC2)c(N)n1
71 | 132 | NC(=O)c1ccc(F)c2c1CC(N(CCc1c[nH]c3ccc(F)cc13)CC1CC1)CO2 (stereo not drawn)
72 | 102 to 104 | COc1cccc(CO)c1C(O)c1ccccn1 (stereo not drawn)
73 | 175 | CCn1nnn(CCN2CCC(=C3c4sccc4CCn4ccnc43)CC2)c1=O
74 | 128 to 130 | Cc1ccc2c(Cl)cc(C(=O)NCc3ccc(Cl)cc3)c(O)c2n1
75 | 158 to 159 | CC1=CC(=C(C#N)C#N)C=C(C)N1
76 | 304 to 307 | C=C1SC(=O)N(c2ccc3cc(-c4cc5c(c(-c6ccncc6)c4)OCO5)ccc3c2)C1=O
77 | 138 to 141 | Cc1noc(NS(=O)(=O)c2ccc(Cl)cc2Cl)c1Br
78 | 258 to 261 | CCCCOc1ccc(/C=C/c2nc3c([nH]2)c(=O)n(CC)c(=O)n3CC)cc1
79 | 112 to 113 | CCCOc1ccccc1-c1nccc(=O)[nH]1
80 | 169 to 171 | NC(=O)C1C=Cc2ccccc2N1C(=O)c1ccccc1 (stereo not drawn)
81 | 141 to 142 | CC(C)(Oc1cccc(OCCCc2cn(-c3ccc(C(F)(F)F)cn3)nc2-c2ccccc2)c1)C(=O)O
82 | 190 to 191 | CCN(CC)S(=O)(=O)c1cc(-n2c(=O)cc(C(F)(F)F)n(C)c2=O)c(F)cc1Cl
83 | 100 | COc1c(OCc2ccc3ccccc3c2)cccc1C(=O)c1nccs1
84 | 232 to 236 | NC(=O)c1cc2cc(F)ccc2nc1N
85 | 135 to 136 | CCC(CC)C(NS(=O)(=O)c1ccc(Cl)cc1)c1ccnn1-c1ccccc1 (stereo not drawn)
86 | 168 to 171 | CCOC(C)=C1SC(=S)N(c2ccc(Cl)cc2)C1=O
87 | 221 | CC(C)(CO)NS(=O)(=O)c1cccc(NC(=O)c2cnn3c(C(F)(F)F)cc(-c4ccc(C(F)(F)F)c(F)c4)nc23)c1
88 | 145 to 146 | COC(=O)Oc1ccc(N=Cc2ccc(C#N)cc2)cc1
89 | 72 to 73 | COc1cc([N+](=O)[O-])c(O)c(OC)c1OC
90 | 175 to 177 | O=C1c2ccc(OC3CCCCC3)cc2CCC1CN1CCC(O)(c2ccccc2)CC1 (stereo not drawn)
91 | 208 to 210 | Cc1c(-n2cnc3c(-c4ccccc4)cc(F)cc32)nc2ccc(F)cc2c1C(=O)O
92 | 204 to 206 | O=c1[nH]ncc2[nH]c(-c3ccc(OC(F)F)c(OC4CC4)c3)c(CC3CC3)c12

Row | SMILES | melting point [°C]
93 | Cc1cc(C(=S)CN=[N+]=[N-])ccc1O | 124 to 129
94 | N#Cc1ccc(N2C(=O)N(CCF)C(CF)(CF)C2=O)cc1C(F)(F)F | 136 to 137
95 | Cn1cnc2c(ccc3[nH]cc(CCN)c32)c1=O | 279 to 285
96 | CN1C(=O)[C@H](NC(=O)/C=C/c2ccc(Cl)cc2Cl)N=C(c2ccccc2)c2ccccc21 | 137 to 139
97 | CN1CCN(Cc2c(O)ccc3c2OCO3)CC1 | 85 to 87
98 | CN1C(=O)CN=C(c2ccccc2F)c2c1cc(Cl)c(NC(=O)C(F)(F)F)c2Cl | 238 to 240
